From ChEMBL document CHEMBL1201862, “PubChem BioAssay data set” (2004)
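Cultured in 96-well plates, cells were exposed to test compound for 48 hours across five concentrations. Abbreviation: GI50, concentration required for 50% inhibition of growth.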 The source made the active and inactive calls. Rule as the data show it: active = GI50 up to about 1.1 µM and inactive = higher.

Tests used:
Assay in all cases: growth of human tumour cells (NCI), 48 h
HCT-116 = test system: HCT-116
SF-295 = test system: SF-295
SW-620 = test system: SW-620
IGROV-1 = test system: IGROV-1
SNB-78 = test system: SNB-78
OVCAR-5 = test system: OVCAR-5
DLD-1 = test system: DLD-1
DMS-273 = test system: DMS-273
M19-MEL = test system: M19-MEL
TK-10 = test system: TK-10
SR = test system: SR
LOX IMVI = test system: LOX IMVI
MOLT-4 = test system: MOLT-4
NCI-H23 = test system: NCI-H23
ACHN = test system: ACHN
SK-OV-3 = test system: SK-OV-3
OVCAR-4 = test system: OVCAR-4
SF-268 = test system: SF-268
Malme-3M = test system: Malme-3M
KM12 = test system: KM12
CCRF-CEM = test system: CCRF-CEM
UACC-257 = test system: UACC-257
SK-MEL-28 = test system: SK-MEL-28
786-0 = test system: 786-0
A549 = test system: A549
RXF 631 = test system: RXF 631
SN12C = test system: SN12C
SK-MEL-2 = test system: SK-MEL-2
HCC 2998 = test system: HCC 2998
HOP-18 = test system: HOP-18
M14 = test system: M14
OVCAR-3 = test system: OVCAR-3
RPMI-8226 = test system: RPMI-8226
HCT-15 = test system: HCT-15
NCI-H460 = test system: NCI-H460
SNB-75 = test system: SNB-75
NCI-H226 = test system: NCI-H226
HOP-92 = test system: HOP-92
U-251 = test system: U-251
UO-31 = test system: UO-31
SNB-19 = test system: SNB-19
RXF 393 = test system: RXF 393
HT-29 = test system: HT-29
COLO 205 = test system: COLO 205
DMS-114 = test system: DMS-114
CAKI-1 = test system: CAKI-1
XF498 = test system: XF498
HL-60 = test system: HL-60
UACC-62 = test system: UACC-62
EKVX = test system: EKVX
LXFL 529 = test system: LXFL 529
SK-MEL-5 = test system: SK-MEL-5
OVCAR-8 = test system: OVCAR-8
SF-539 = test system: SF-539
K562 = test system: K562
KM-20L2 = test system: KM-20L2
HOP-62 = test system: HOP-62

Compound: CCP(C)(=O)CC
- GI50 (HCT-116): > 100 µM (inactive)
- GI50 (SF-295): > 100 µM (inactive)
- GI50 (SW-620): > 100 µM (inactive)
- GI50 (IGROV-1): > 100 µM (inactive)
- GI50 (SNB-78): > 100 µM (inactive)
- GI50 (OVCAR-5): > 100 µM (inactive)
- GI50 (DLD-1): > 100 µM (inactive)
- GI50 (DMS-273): > 100 µM (inactive)
- GI50 (M19-MEL): > 100 µM (inactive)
- GI50 (TK-10): > 100 µM (inactive)
- GI50 (SR): > 100 µM (inactive)
- GI50 (LOX IMVI): > 100 µM (inactive)
- GI50 (MOLT-4): > 100 µM (inactive)
- GI50 (NCI-H23): > 100 µM (inactive)
- GI50 (ACHN): > 100 µM (inactive)
- GI50 (SK-OV-3): > 100 µM (inactive)
- GI50 (OVCAR-4): > 100 µM (inactive)
- GI50 (SF-268): > 100 µM (inactive)
- GI50 (Malme-3M): > 100 µM (inactive)
- GI50 (KM12): > 100 µM (inactive)
- GI50 (CCRF-CEM): > 100 µM (inactive)
- GI50 (UACC-257): > 100 µM (inactive)
- GI50 (SK-MEL-28): > 100 µM (inactive)
- GI50 (786-0): > 100 µM (inactive)
- GI50 (A549): > 100 µM (inactive)
- GI50 (RXF 631): > 100 µM (inactive)
- GI50 (SN12C): > 100 µM (inactive)
- GI50 (SK-MEL-2): > 100 µM (inactive)
- GI50 (HCC 2998): > 100 µM (inactive)
- GI50 (HOP-18): > 100 µM (inactive)
- GI50 (M14): > 100 µM (inactive)
- GI50 (OVCAR-3): > 100 µM (inactive)
- GI50 (RPMI-8226): > 100 µM (inactive)
- GI50 (HCT-15): > 100 µM
- GI50 (NCI-H460): > 100 µM (inactive)
- GI50 (SNB-75): > 100 µM (inactive)
- GI50 (NCI-H226): > 100 µM (inactive)
- GI50 (HOP-92): > 100 µM (inactive)
- GI50 (U-251): > 100 µM (inactive)
- GI50 (UO-31): > 100 µM (inactive)
- GI50 (SNB-19): > 100 µM (inactive)
- GI50 (RXF 393): > 100 µM (inactive)
- GI50 (HT-29): > 100 µM (inactive)
- GI50 (COLO 205): > 100 µM (inactive)
- GI50 (DMS-114): > 100 µM (inactive)
- GI50 (CAKI-1): > 100 µM (inactive)
- GI50 (XF498): > 100 µM (inactive)
- GI50 (HL-60): > 100 µM (inactive)
- GI50 (UACC-62): > 100 µM (inactive)
- GI50 (EKVX): > 100 µM (inactive)
- GI50 (LXFL 529): > 100 µM (inactive)
- GI50 (SK-MEL-5): > 100 µM (inactive)
- GI50 (OVCAR-8): > 100 µM (inactive)
- GI50 (SF-539): > 100 µM (inactive)
- GI50 (K562): > 100 µM (inactive)
- GI50 (KM-20L2): > 100 µM (inactive)
- GI50 (HOP-62): > 100 µM (inactive)
